# pEC50, pKi: −log10 of the molar value. “And” between values parts separate entries of the source, which are not always exact repeats. Identical values can stand only once. The source made the active and inactive calls. The rule behind the calls is not given here.
# What was measured:
# [1] = Stimulation of [35S]GTPcS binding against recombinant human opioid receptor kappa 1; assay type: functional
# [2] = Stimulation of [35S]GTPcS binding against recombinant human opioid receptor mu 1; assay type: functional
# [3] = Stimulation of [35S]GTPcS binding against recombinant human opioid receptor delta 1; assay type: functional
# Homo sapiens [4] = species on record: Homo sapiens; assay: Percentage stimulation of [35S]GTPcS binding compared to relevant control; ND=Not detectable activity; assay type: functional
# [5] = Inhibition of [3H]U-69593 binding to recombinant human Opioid receptor kappa 1
# [6] = Inhibition of [3H]DPDPE binding to recombinant human Opioid receptor delta 1
# Mu-type opioid receptor = Mu-type opioid receptor (Homo sapiens, UniProt P35372); assay: Inhibition of [3H]-DAMGO binding to recombinant human Opioid receptor mu 1
# [7] = Stimulation of [35S]GTPcS binding against recombinant human opioid receptor kappa 1;ND=no detectable activity; assay type: functional
# Homo sapiens [8] = species on record: Homo sapiens; assay: Percentage stimulation of [35S]GTPcS binding compared to relevant control;ND=no detectable activity; assay type: functional
# [9] = Half life in human liver microsomes; assay type: ADME, Microsome
# [10] = Half life in rat liver microsomes; assay type: ADME, Microsome
# [11] = Half life in monkey liver microsomes; assay type: ADME, Microsome; conditions: cercopithecidae
# [12] = target: Opioid receptors; mu & delta (Homo sapiens) (UniProt P41143+P35372); assay: Receptor selectivity ratio for Opioid receptors delta 1 and mu 1; assay type: protein assay
# Homo sapiens [13] = species on record: Homo sapiens; assay: Percentage stimulation of [35S]-GTPcS binding compared to relevant control; assay type: functional
# Sequence of Opioid receptors; mu & delta (Homo sapiens) (P35372 whole entry, looked up): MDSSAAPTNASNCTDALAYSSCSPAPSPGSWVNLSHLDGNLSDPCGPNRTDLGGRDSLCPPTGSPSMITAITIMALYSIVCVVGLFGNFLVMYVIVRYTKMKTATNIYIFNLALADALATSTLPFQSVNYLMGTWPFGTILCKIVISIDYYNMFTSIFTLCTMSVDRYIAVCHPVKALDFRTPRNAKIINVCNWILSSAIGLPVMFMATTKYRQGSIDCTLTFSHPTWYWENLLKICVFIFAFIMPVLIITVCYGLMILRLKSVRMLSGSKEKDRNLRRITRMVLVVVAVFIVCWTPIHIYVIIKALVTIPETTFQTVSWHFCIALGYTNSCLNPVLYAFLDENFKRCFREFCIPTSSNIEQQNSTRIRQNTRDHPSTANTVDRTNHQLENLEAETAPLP
# Sequence of Opioid receptors; mu & delta (Homo sapiens) (P41143 whole entry, looked up): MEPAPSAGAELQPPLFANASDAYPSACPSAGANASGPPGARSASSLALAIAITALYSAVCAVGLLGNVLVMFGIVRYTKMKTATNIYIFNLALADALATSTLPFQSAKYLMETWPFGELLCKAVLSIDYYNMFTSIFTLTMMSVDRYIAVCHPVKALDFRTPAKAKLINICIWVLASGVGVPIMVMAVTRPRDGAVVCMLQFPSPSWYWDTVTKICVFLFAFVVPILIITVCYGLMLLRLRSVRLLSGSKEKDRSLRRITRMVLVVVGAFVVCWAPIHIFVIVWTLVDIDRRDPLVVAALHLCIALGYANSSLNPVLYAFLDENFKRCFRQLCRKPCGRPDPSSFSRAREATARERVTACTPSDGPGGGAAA
# Sequence of Mu-type opioid receptor (P35372 whole entry): as the sequence (P35372 whole entry, looked up) above
SMILES,pEC50 [1],pEC50 [2],pEC50 [3],Emax (Homo sapiens [4]),pKi [5],pKi [6],pKi (Mu-type opioid receptor),EC50 [7],Emax (Homo sapiens [8]),half-life [9] [min],half-life [10] [min],half-life [11] [min],Selectivity [12],Emax (Homo sapiens [13])
CN1CC[C@]23c4c5ccc(O)c4O[C@H]2[C@@H](O[C@@H]2O[C@H](C(=O)O)[C@@H](O)[C@H](O)[C@H]2O)C=C[C@H]3[C@H]1C5 [MORPHINE GLUCURONIDE],< 5.00,7.14,6.72,inactive,5.39,6.77,7.89,,,,,,,
COC1[C@H](SC2OC(C(=O)O)C(O)C(O)C2O)C=C[C@H]2[C@H]3Cc4ccc(O)cc4[C@@]12CCN3C (some centres not stated),,7.04,7.30,,6.54,7.50,8.06,Not Active,inactive,,,,,
COC1[C@H](NC(=O)CC2OC(COCc3ccccc3)C(OCc3ccccc3)C(OCc3ccccc3)C2OCc2ccccc2)CC[C@H]2[C@H]3Cc4ccc(O)cc4[C@@]12CCN3C (some centres not stated),,,,,,,,,,42.9,19.8,90,,
COC1[C@H](NC(=O)CC2OC(COCc3ccccc3)C(OCc3ccccc3)C(OCc3ccccc3)C2OCc2ccccc2)C=C[C@H]2[C@H]3Cc4ccc(O)cc4[C@@]12CCN3C (some centres not stated),8.74,6.21,8.66,,7.80,8.14,9.30,,,,24.6,30.7,,
COC1[C@H](NC(=O)CC2OC(CO)C(O)C(O)C2O)C=C[C@H]2[C@H]3Cc4ccc(O)cc4[C@@]12CCN3C (some centres not stated) [DEPROTECTED COGENER OF M6G],,7.43,6.48,,,6.57,8.46,,,,,,76.7 and 166,
COC1[C@H](SC2OC(CO)C(O)C(O)C2O)C=C[C@H]2[C@H]3Cc4ccc(O)cc4[C@@]12CCN3C (some centres not stated),6.49,7.04,6.72,,6.87,7.25,,,,,,,10.4 and 25.4,42.5% and 64.5% and 51.5%

# Source: ChEMBL document CHEMBL1141907, “Synthesis and in vitro biological evaluation of a carbon glycoside analogue of morphine-6-glucuronide” (Bioorg Med Chem Lett, 2005)
